Test results from US20250213587A1, “ITK INHIBITORS FOR INCREASING TH1 CELL ACTIVITY” (Corvus Pharmaceuticals, Inc., priority 2022, published 2025).
“Also recorded” adds a separate entry of the source.

Columns and labels:
Lck = Lck (Homo sapiens, UniProt P06239); experiment: Human kinome profiling at 1.0 μM, Lck; format: biochemical; details: read-out: percent control, Lck
[1] = Glutathione reactivity assay; format: physicochemical; details: 37° C.
Protocol: The reactivity of acrylamides with glutathione was determined by measuring the disappearance of starting material and appearance of the adduct with glutathione in HPLC-MS spectra as a function of time. All the stock solutions and solvents were bubbled with nitrogen and all reactions were run under nitrogen at 37° C. A 250 μL volume of 20 mM test compound in DMSO was mixed with 250 μL of 2.0 mM indoprofen (used as internal standard) in DMSO and 4.5 mL of 11.1 mM glutathione in 100 mM potassium phosphate buffer (pH 7.4). Each reaction contained 1 mM test compound, 0.1 mM indoprofen, and 10 mM glutathione in 100 mM potassium phosphate buffer and 10% DMSO. The reaction mixture was stirred at 37° C. for 5 hours and sampled for HPLC-MS analysis every hour. The reaction product, internal standard and starting materials were separated by liquid chromatography using an Agilent Eclipse XBD-C18 column (4.6×150 mm, 3.5 um) and quantified by UV absorption. The mobile phase consisted of solvent A (water) and solvent B (acetonitrile), employing a gradient of 10% to 95% solvent B over 10 min.

[2] = system: IL-2 secretion by Jurkat T cells; experiment: Inhibition of IL-2 production in Jurkat cells; format: cell-based; details: Homo sapiens, washout, anti-CD3 18 hours, 15 determinations
Protocol: Jurkat cells (0.25×10^6) in Dulbecco's Modified Eagle's medium (Gibco) supplemented with 5% FBS were seeded in each well of a 96 well MultiScreenR HV filter plate (EMD Millipore) placed on top of a 96 well collection plate. CPI 818 was serially diluted in DMSO and added to the culture. After a 2-hour incubation at 37° C. the plates were centrifuged (188×g for 15 seconds) to remove the inhibitor-containing medium from the filter plate. Cells were washed twice by resuspending with 200 μL of medium per well and centrifuged. Cells in each well were then resuspended with 1.25×10^6 (50 μL) of Dynabeads CD3 (Life Technologies) and incubated for 18 hours at 37° C. Conditioned media was collected by centrifugation (188×g for 1 min). Human IL-2 concentration was measured with the AlphaLISA human IL2 Kit (PerkinElmer) and data collected on an Envision Plate Reader (PerkinElmer). Data were analyzed and graphed using GraphPad Prism version b7.0b. Technical duplicates of the concentration response were collected at each determination.

[3] = system: IL-4 production by CD4+ T cells; experiment: T cell activation, IL-4+CD4+ T cells; format: cell-based, human
Protocol: Fresh PBMCs from healthy human donors were centrifuged and reconstituted at 0.312×10^6 cells/mL in RPMI 1640 medium+10% heat-inactivated FBS+1× penicillin streptomycin and 100,000 cells/well were distributed into 24 well tissue culture plate. Cells were incubated at 37° C. for 1 hour, followed by the addition of CPI 596 or vehicle. The cells were then incubated at 37° C. for 1 hour, followed by the addition of […] anti CD3 and anti CD28 (both eBioscience). Cells were incubated at 37° C. for 6 days, with supplemental media supplied on day 3. On Day 6, the cells were transferred to a 96 deep well plate, washed, and treated with 50 nM phorbol 12-myristate 13-acetate, 1 μg/mL ionomycin, and 1 μg/mL brefeldin A, and then incubated at 37° C. for 4 hours. The cells were then fixed and permeabilized using eBioscience Fox3/transcription factor staining buffer. Cells were treated with Fc block (BioLegend) and then stained with CD3 BV605, CD45RA PerCP-Cy5.5, Tbet PE, IFNγ AF488, IL-4 APC (BioLegend), CD4 PE-Cy7, cPARP AF700 (BD Biosciences), and CD8 Krome Orange (Beckman Coulter). For flow cytometry, 300,000 cells were acquired on Cytoflex (Beckman Coulter). Data were analyzed using Flowjo software. The percentage of CD4^+ T cells that were positive for IFNγ and IL 4 were reported.

[4] = system: NK cells with anti-CD20 bound Jeko target cells; experiment: NK-mediated ADCC; format: cell-based, human; details: 1 μM, 18 hours
Protocol: FIGS. 9A-9B show selective Inhibition of ITK preserved NK-mediated ADCC. FIG. 9A: Lymphocyte subsets (5 donors/cell type) were purified from the peripheral blood of 22 healthy donors. The expression of ITK and RLK, relative to the house keeping gene IPO8, were determined by qPCR. FIG. 9B: Peripheral blood NK cells from 7 healthy donors were co-cultured at a 10:1 ratio with anti-CD20 bound target cells (B-cell lymphoma line Jeko) and with inhibitors for 18 hours. Cell lysis was detected by viability dye using flow cytometry. The % dead target cells in samples treated with DMSO were set as the maximum lysis (100%).
NK cells express both ITK and RLK (FIG. 9A). […] Peripheral blood NK cells from 7 healthy donors were co-cultured with an anti-CD20 bound target B-cell line at a ratio of 10:1 for 18 hours in the presence of the inhibitors over a range of concentrations up to 1 μM. Cell lysis was detected by flow cytometry using viability dye staining.

[5] = system: Th1, Th17, CD4+ effector cells, eosinophils; experiment: Blood and tumor cell changes in treated lymphoma patients; format: in vivo, human
[6] = system: imiquimod-induced psoriasis; experiment: Imiquimod-induced model of psoriasis; details: in vivo

Sequence of Lck (P06239 whole entry): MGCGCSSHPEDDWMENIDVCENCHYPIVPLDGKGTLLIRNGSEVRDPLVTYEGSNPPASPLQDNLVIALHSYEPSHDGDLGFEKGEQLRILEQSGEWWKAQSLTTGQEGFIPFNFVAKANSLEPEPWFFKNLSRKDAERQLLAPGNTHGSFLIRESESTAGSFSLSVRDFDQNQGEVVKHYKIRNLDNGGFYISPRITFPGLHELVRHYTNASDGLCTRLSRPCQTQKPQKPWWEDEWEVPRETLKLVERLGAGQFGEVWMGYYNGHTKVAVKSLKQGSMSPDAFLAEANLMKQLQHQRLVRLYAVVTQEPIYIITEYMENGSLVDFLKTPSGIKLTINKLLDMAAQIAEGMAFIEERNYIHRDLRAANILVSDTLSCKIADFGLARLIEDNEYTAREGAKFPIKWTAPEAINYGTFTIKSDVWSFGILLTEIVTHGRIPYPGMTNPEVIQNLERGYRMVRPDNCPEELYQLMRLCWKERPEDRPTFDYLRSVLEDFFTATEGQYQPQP

remaining activity at 1 µM (Lck): 89%
stability of acrylamide in presence of glutathione ([1]; 3 h): minimal loss
loss in presence of glutathione ([1]; physiological glutathione, 5 h): 4%
IC50 [2]: 136 nM
Structure (SMILES): C=CC(=O)N1CCCN(C(=O)c2cc(Sc3cnc(NC(=O)C4CC4)s3)c(C)cc2OC)C[C@H]1C [CPI-818]
IL-4 production ([3]; 10 μM): complete inhibition
inhibition at 1 µM ([3]; Homo sapiens, CD4+ T, 1 μM, average, read-out: inhibition of percentage of CD4+ T cells that produced IL-4): 64%
decrease of ADCC [4]: 20%
CD4+ effector cells ([5]; blood and tumor, 200 mg BID): increases
Th17 pro-inflammatory cells ([5]; lymphoma patient): decrease
Th1 cells ([5]; lymphoma patient, blood/tumor): increases
eosinophils ([5]; patient on therapy): decreased while on therapy; also recorded: marked reduction
dermal inflammation [6]: significantly reduced
skin thickening [6]: significantly reduced
